According to article PMC11769347, “Development of Novel Fluticasone/Salmeterol/Tiotropium-Loaded Dry Powder Inhaler and Bioequivalence Assessment to Commercial Products in Rats” (Pharmaceutics, 2025):

How the values were obtained:
Assay type in all cases: physicochemical
[1] = Particle size by laser diffraction (HELOS) after air jet milling
Description: The drug was supplied into a jet mill at a rate of 10 g/min with injection air and grinding air pressures set at among 1–4 bars. The particle size of the micronized TB was measured using high-resolution laser diffraction spectroscopy (HELOS; Sympatec, Clausthal-Zellerfeld, Germany).

[2] = Dissolution of fine particles less than 5 μm in simulated lung fluid; conditions: 37 °C, 75 rpm; for dissolved: within 15 min
Description: To collect the fine particles less than 5 μm on a glass fiber filter, abbreviated ACI was used [17, 18]. The micronized FP/SX/TB blend was dispersed at a flow rate of 60 L/min, and 4.0 L of air was withdrawn. The glass fiber filter with collected fine particles was assembled into a filter holder (Copley Scientific, Nottingham, UK). […] The filter holder was placed in a dissolution vessel, and 500 mL of simulated lung fluid was used as dissolution media [19]. The dissolution media was maintained at a temperature of 37 ± 0.5 °C with an agitation speed of 75 rpm. At a predetermined time, 2 mL of the media was collected and diluted with 0.1 M HCl, edetate disodium dihydrate, and methanol to achieve a ratio of 900:50:0.075:50. The diluted solution was filtered through a 0.45 μm PVDC membrane filter and analyzed by HPLC as described in Section 2.5.

[3] = Effect of capsule components on drug stability (degraded compounds by HPLC); conditions: in various capsules, 60 °C for 2 weeks; % of the initial amount
Description: The effect of capsule components on the stability of FP, SX, or TB was investigated. The main materials and gelling agent of the capsule are described in Table 2. Each capsule was packed in an aluminum–aluminum blister and stored at 60 °C for 2 weeks. For comparison, commercial products are stored under the same conditions. Degraded compounds of FP, SX, or TB were analyzed as described in Section 2.5.
Degradation compounds of FP, SX, or TB were quantified using a high-performance liquid chromatography (HPLC) system (Hitachi, Tokyo, Japan) comprising a 5110 pump, 5430 detectors, a 5310 column oven, and 5210 autosamplers. While FP and SX were analyzed together, TB was assessed using a separate set of analytical conditions. Inertsil® ODS-2 column (4.6 mm × 250 mm, 5 μm) was used to analyze the degradation compounds of FP and SX. The powder, equivalent to 2.5 mg of FP and 0.725 mg of SX, was introduced into 5 mL of a mixture consisting of phosphoric acid, methanol, and distilled water in a ratio of 0.05:89.95:10. The mixture solution was vortexed for 30 min and passed through a 0.45 μm membrane filter. Fifty microliter aliquots of the filtered solution were injected and detected at 228 nm. […] Fifteen microliter aliquots of the sample solution were injected into the column at 50 °C and monitored at […] with a flow rate of 1.2 mL/min.

[4] = powder without the air jet milling process (as from the manufacturer)

In the case of `OCc1cc(C(O)CNCCCCCCOCCCCc2ccccc2)ccc1O` (stereo not shown) [SX, salmeterol xinafoate], the particle size [1, 4] is reported as “less than 5 μm” and the dissolved [2] is reported as “more than 85%”.

With `CCC(=O)O[C@]1(C(=O)SCF)[C@H](C)C[C@H]2[C@@H]3C[C@H](F)C4=CC(=O)C=C[C@]4(C)[C@@]3(F)[C@@H](O)C[C@@]21C` [FP, fluticasone propionate] the “total degraded compound of FP” value [3] was “less than 0.7%”, the particle size [1, 4] was “less than 5 μm” and the maximum dissolution [2] was “approximately 20%”.

For `C[N+]1(C)[C@@H]2C[C@@H](OC(=O)C(O)(c3cccs3)c3cccs3)C[C@H]1[C@@H]1O[C@@H]12` [TB, tiotropium bromide], the particle size ([1]; air jet mill condition I: injection air pressure 2 bar, grinding air pressure 1 bar) was 3.1 ± 0.3 μm, the particle size ([1]; air jet mill condition II: injection air pressure 3 bar, grinding air pressure 2 bar) was 2.5 ± 0.1 μm and the particle size ([1]; air jet mill condition III: injection air pressure 4 bar, grinding air pressure 3 bar) was 1.4 ± 0.3 μm. The particle size [1, 4] was 6.1 ± 0.8 μm and the dissolved [2] was “more than 85%”.
